# Experimental data published in patent US8835481B2, “1-benzyl-3-hydroxymethylindazole derivatives and use thereof in the treatment of diseases based on the expression of MCP-1, CX3CR1 and P40” (Aziende Chimiche Riunite Angelini Francesco A.C.R.A.F. …, priority 2008, dated 2014).
# What was measured:
# [1] = tested on: MCP-1 protein production by LPS-stimulated MonoMac6 cells; test: Measurement of the production of MCP-1 in a human monocyte line (ELISA); format: cell-based; conditions: 1 h pre-incubation, LPS 100 ng/ml 20 h, MonoMac6 supernatant; for inhibition at 30 µM: MONO-MAC-6, compound 30 μM (maximum soluble concentration); for inhibition at 150 µM: MONO-MAC-6, compound 150 μM (maximum soluble concentration); for inhibition at 300 µM: MONO-MAC-6, compound 300 μM (maximum soluble concentration)
# Experimental: (§1) The capacity of the compounds to inhibit the expression of the protein MCP-1 by lipopolysaccharide (LPS)-stimulated MonoMac6 cells was evaluated. The cells were placed in 96-well plates at a concentration of 50 000 cells/well. The compounds were tested at the maximum soluble concentration given in Table 2 (in the range 30-300 μM) and incubated for 1 hour. The cells were then stimulated with LPS (100 ng/ml) for 20 hours.
# The amount of MCP-1 produced was measured in the supernatants, suitably diluted with buffer, by means of an immunoenzymatic test (ELISA) using a commercial kit (ELISA MCP-1/JE, R&D Systems).
# [2] = tested on: CX3CR1 expression by LPS-stimulated MonoMac6 cells; test: Analysis of the gene expression of CX3CR1 in a human monocyte line (real-time RT-PCR); format: cell-based; conditions: 1 h pre-incubation, LPS 100 ng/ml 20 h, read-out: % inhibition of CX3CR1 expression (mRNA); for inhibition at 150 µM: MONO-MAC-6, compound 150 μM (maximum soluble concentration); for inhibition at 300 µM: MONO-MAC-6, compound 300 μM (maximum soluble concentration)
# Experimental: The capacity of the compounds to inhibit the expression of CX3CR1 by lipopolysaccharide (LPS)-stimulated MonoMac6 cells was evaluated. The cells were placed in 96-well plates at a concentration of 50 000 cells/well. […] The cells were then stimulated with LPS (100 ng/ml) for 20 hours.
# (§2) The total RNA was extracted from the cell pellet using the RNeasy mini kit (Qiagen), reverse-transcribed with the TaqMan Reverse transcription reagents synthesis kit (Applied Biosystems) and the cDNA obtained was used for the real-time PCR reaction. The amplification was obtained in 96-well plates using the ABI Prism 7000 sequence detection system (Applied Biosystems), by applying the following temperature profile: 50° C. for 2 minutes, 95° C. for 10 minutes and 45 cycles at 95° C. for 15 seconds and 60° C. for 1 minute. […] A set of primers and probe for β-actin was used in separate wells as an internal control of the samples for the purposes of normalization. Once the reaction had taken place, the fluorescence data were analysed using the ABI Prism 7000 SDS software, by calculating the threshold cycle (Ct) for each sample and subsequently performing a relative quantification via the ΔΔCt method.
# [3] = tested on: p40 expression by LPS-stimulated MonoMac6 cells; test: Analysis of the gene expression of p40 in a human monocyte line (real-time RT-PCR); format: cell-based; conditions: 1 h pre-incubation, LPS 100 ng/ml 4 h, read-out: % inhibition of p40 expression (mRNA); for inhibition at 300 µM: MONO-MAC-6, compound 300 μM (maximum soluble concentration)
# Experimental: as §1, with “p40” for “the protein MCP-1”, “4” for “2”, “4” for “20”
# as §2
# [4] = tested on: MCP-1 expression by LPS-stimulated MonoMac6 cells; test: Analysis of the gene expression of MCP-1 in a human monocyte line (real-time RT-PCR); format: cell-based; conditions: 1 h pre-incubation, LPS 100 ng/ml 4 h
# Experimental: as §1, with “of” for “of the protein”, “1” for “2”, “4” for “20”
# The total RNA was extracted from the cell pellet using the RNeasy mini kit (Qiagen), reverse-transcribed with the TaqMan Reverse transcription reagents synthesis kit (Applied Biosystems) and the cDNA obtained was used for the real-time PCR reaction. The amplification was obtained in 96-well plates using the ABI Prism 7000 sequence detection system (Applied Biosystems), by applying the following temperature profile: 50° C. for 2 minutes, 95° C. for 10 minutes and 45 cycles at 95° C. for 15 seconds and 60° C. for 1 minute. For the amplification, a set of primers and probe specific for human MCP-1 was used (Applied Biosystems, RefSeq NM_002982.3). A set of primers and probe for β-actin was used in separate wells as an internal control of the samples for the purposes of normalization. Once the reaction had taken place, the fluorescence data were analysed using the ABI Prism 7000 SDS software, by calculating the threshold cycle (Ct) for each sample and subsequently performing a relative quantification via the ΔΔCt method.
# [5] = MONO-MAC-6, compound 30 μM (maximum soluble concentration)
# [6] = compound 150 μM (maximum soluble concentration)
# [7] = compound 300 μM (maximum soluble concentration)
smiles,measurement,setting,value
"CC(C)(OCc1nn(Cc2ccc(Cl)c(Cl)c2)c2ccccc12)C(=O)O [Compound 7, 2-{[1-(3,4-dichlorobenzyl)-1H-indazol-3-yl]methoxy}-2-methylpropanoic acid]",inhibition at 30 µM,[1],29%
same,inhibition at 30 µM,[2]; [5],85%
same,inhibition at 30 µM,[3]; [5],47%
"CC(C)(OCc1nn(C2CCCc3ccccc32)c2ccccc12)C(=O)O (centres unmarked) [Compound 8, 2-methyl-2-{[1-(1,2,3,4-tetrahydronaphth-1-yl)-1H-indazol-3-yl]methoxy}-propanoic acid]",inhibition at 150 µM,[1],77%
"CC(C)(OCc1nn(Cc2ccccc2)c2ccc(Br)cc12)C(=O)O [Compound 23, 2-[(1-benzyl-5-bromo-1H-indazol-3-yl)methoxy]-2-methylpropanoic acid]",melting point,,168 to 170 °C
"CC(C)(OCc1nn(Cc2ccccc2)c2ccc([N+](=O)[O-])cc12)C(=O)O [Compound 6, 2-[(1-benzyl-5-nitro-1H-indazol-3-yl)methoxy]-2-methylpropanoic acid]",% inhibition of MCP-1 expression (mRNA),[4]; [6],95%
same,inhibition at 150 µM,[1],100%
same,inhibition at 150 µM,[2],98%
"CC(C)(OCCOCc1nn(Cc2ccccc2)c2ccccc12)C(=O)O [Compound 20, 2-{2-[(1-benzyl-1H-indazol-3-yl)methoxy]ethoxy}-2-methylpropanoic acid]",% inhibition of MCP-1 expression (mRNA),[4]; [7],29%
same,inhibition at 300 µM,[1],73%
same,inhibition at 300 µM,[2],89%
same,inhibition at 300 µM,[3],58%
same,melting point,,94 to 95 °C
"O=C(O)COCc1nn(Cc2ccc(F)cc2)c2ccccc12 [Compound 17, {[1-(4-fluorobenzyl)-1H-indazol-3-yl]methoxy}acetic acid]",% inhibition of MCP-1 expression (mRNA),[4]; [7],26%
same,inhibition at 300 µM,[1],39%
same,inhibition at 300 µM,[2],90%
same,inhibition at 300 µM,[3],61%
"CC(C)(OCc1nn(Cc2ccc(Cl)cc2)c2ccccc12)C(=O)O [Compound 4, 2-{[1-(4-chlorobenzyl)-1H-indazol-3-yl]methoxy}-2-methylpropanoic acid]",% inhibition of MCP-1 expression (mRNA),[4]; [6],26%
same,inhibition at 150 µM,[1],54%
same,inhibition at 150 µM,[2],87%
same,inhibition at 150 µM,"[3]; MONO-MAC-6, compound 150 μM (maximum soluble concentration)",48%
"COc1ccc2c(c1)c(COC(C)(C)C(=O)O)nn2Cc1ccccc1 [Compound 2, 2-[(1-benzyl-5-methoxy-1H-indazol-3-yl)methoxy]-2-methylpropanoic acid]",inhibition at 300 µM,[1],66%
same,melting point,,128 to 130 °C
"O=C(O)COCCOCc1nn(Cc2ccccc2)c2ccccc12 [Compound 19, {2-[(1-benzyl-1H-indazol-3-yl)methoxy]ethoxy}acetic acid]",inhibition at 300 µM,[1],63%
"COc1ccc(Cn2nc(COC(C)(C)C(=O)O)c3ccccc32)cc1 [Compound 1, 2-{[1-(4-methoxybenzyl)-1H-indazol-3-yl]methoxy}-2-methylpropanoic acid]",% inhibition of MCP-1 expression (mRNA),[4]; [7],57%
same,inhibition at 300 µM,[1],80%
same,inhibition at 300 µM,[2],97%
same,inhibition at 300 µM,[3],50%
same,melting point,,169 to 171 °C
"CC(C)(OCCCOCc1nn(Cc2ccccc2)c2ccccc12)C(=O)O [Compound 21, 2-{3-[(1-benzyl-1H-indazol-3-yl)methoxy]propoxy}-2-methylpropanoic acid]",% inhibition of MCP-1 expression (mRNA),[4]; [7],61%
same,inhibition at 300 µM,[1],88%
same,inhibition at 300 µM,[2],97%
same,inhibition at 300 µM,[3],50%
"O=C(O)COCc1nn(Cc2ccc(Cl)cc2Cl)c2ccccc12 [Compound 18, {[1-(2,4-dichlorobenzyl)-1H-indazol-3-yl]methoxy}acetic acid]",inhibition at 30 µM,[1],35%
"CC(C)(OCc1nn(Cc2ccccc2)c2ccc(Cl)cc12)C(=O)O [Compound 5, 2-[(1-benzyl-5-chloro-1H-indazol-3-yl)methoxy]-2-methylpropanoic acid]",inhibition at 150 µM,[1],82%
same,melting point,,145 to 147 °C
"CC(C)(OCc1nn(C(=O)c2ccccc2)c2ccccc12)C(=O)O [Compound 3, 2-[(1-benzoyl-1H-indazol-3-yl)methoxy]-2-methylpropanoic acid]",% inhibition of MCP-1 expression (mRNA),[4]; [7],65%
same,inhibition at 300 µM,[1],83%
same,inhibition at 300 µM,[2],99%
same,inhibition at 300 µM,[3],64%
"Cc1ccc(Cn2nc(COC(C)(C)C(=O)O)c3ccccc32)cc1 [Compound 22, 2-{[1-(4-methylbenzyl)-1H-indazol-3-yl]methoxy}-2-methylpropanoic acid]",inhibition at 150 µM,[1],37%
